Measured values: publication PMC4076210, “Discovery of Novel AKT Inhibitors with Enhanced Anti-Tumor Effects in Combination with the MEK Inhibitor” (PLoS ONE, 2014)
Like-named read-outs stand apart in the source and are kept apart here.

Columns and labels:
EGFR(T790M)(h) = biological target: T1, EGFR(T790M)(h) (Homo sapiens, UniProt P00533, T790M); assay: Kinase panel; format: biochemical
T1 construct: purchased Millipore KinaseProfiler

Mer(h) = biological target: T2, Mer(h) (Homo sapiens, UniProt Q12866); assay: Kinase panel; format: biochemical
T2 construct: purchased Millipore KinaseProfiler
T2 sequence (Q12866 21-999): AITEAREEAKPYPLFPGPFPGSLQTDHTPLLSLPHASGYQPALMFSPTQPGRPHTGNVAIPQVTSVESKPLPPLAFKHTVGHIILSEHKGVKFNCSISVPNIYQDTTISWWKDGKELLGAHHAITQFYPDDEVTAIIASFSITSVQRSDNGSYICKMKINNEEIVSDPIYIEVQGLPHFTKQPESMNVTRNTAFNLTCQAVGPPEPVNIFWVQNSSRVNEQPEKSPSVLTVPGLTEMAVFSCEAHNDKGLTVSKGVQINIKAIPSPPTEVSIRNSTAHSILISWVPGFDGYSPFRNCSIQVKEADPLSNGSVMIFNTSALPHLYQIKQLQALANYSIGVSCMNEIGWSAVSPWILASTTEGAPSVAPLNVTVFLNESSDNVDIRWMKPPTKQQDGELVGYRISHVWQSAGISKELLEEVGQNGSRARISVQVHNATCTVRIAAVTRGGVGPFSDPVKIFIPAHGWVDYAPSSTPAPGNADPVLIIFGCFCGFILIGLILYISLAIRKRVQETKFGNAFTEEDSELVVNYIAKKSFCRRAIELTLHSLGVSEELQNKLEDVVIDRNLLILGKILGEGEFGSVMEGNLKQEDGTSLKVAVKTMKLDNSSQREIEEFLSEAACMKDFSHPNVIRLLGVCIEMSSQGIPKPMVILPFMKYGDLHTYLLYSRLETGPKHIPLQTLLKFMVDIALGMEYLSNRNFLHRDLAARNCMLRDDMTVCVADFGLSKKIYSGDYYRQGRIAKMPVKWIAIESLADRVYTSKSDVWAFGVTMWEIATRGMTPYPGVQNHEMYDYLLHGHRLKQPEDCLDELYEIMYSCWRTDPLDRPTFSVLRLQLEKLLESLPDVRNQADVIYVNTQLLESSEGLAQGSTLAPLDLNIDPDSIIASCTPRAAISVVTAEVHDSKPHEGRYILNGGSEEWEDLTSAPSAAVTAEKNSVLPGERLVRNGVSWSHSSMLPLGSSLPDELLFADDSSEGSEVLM

T1 sequence (P00533 25-1210 T790M): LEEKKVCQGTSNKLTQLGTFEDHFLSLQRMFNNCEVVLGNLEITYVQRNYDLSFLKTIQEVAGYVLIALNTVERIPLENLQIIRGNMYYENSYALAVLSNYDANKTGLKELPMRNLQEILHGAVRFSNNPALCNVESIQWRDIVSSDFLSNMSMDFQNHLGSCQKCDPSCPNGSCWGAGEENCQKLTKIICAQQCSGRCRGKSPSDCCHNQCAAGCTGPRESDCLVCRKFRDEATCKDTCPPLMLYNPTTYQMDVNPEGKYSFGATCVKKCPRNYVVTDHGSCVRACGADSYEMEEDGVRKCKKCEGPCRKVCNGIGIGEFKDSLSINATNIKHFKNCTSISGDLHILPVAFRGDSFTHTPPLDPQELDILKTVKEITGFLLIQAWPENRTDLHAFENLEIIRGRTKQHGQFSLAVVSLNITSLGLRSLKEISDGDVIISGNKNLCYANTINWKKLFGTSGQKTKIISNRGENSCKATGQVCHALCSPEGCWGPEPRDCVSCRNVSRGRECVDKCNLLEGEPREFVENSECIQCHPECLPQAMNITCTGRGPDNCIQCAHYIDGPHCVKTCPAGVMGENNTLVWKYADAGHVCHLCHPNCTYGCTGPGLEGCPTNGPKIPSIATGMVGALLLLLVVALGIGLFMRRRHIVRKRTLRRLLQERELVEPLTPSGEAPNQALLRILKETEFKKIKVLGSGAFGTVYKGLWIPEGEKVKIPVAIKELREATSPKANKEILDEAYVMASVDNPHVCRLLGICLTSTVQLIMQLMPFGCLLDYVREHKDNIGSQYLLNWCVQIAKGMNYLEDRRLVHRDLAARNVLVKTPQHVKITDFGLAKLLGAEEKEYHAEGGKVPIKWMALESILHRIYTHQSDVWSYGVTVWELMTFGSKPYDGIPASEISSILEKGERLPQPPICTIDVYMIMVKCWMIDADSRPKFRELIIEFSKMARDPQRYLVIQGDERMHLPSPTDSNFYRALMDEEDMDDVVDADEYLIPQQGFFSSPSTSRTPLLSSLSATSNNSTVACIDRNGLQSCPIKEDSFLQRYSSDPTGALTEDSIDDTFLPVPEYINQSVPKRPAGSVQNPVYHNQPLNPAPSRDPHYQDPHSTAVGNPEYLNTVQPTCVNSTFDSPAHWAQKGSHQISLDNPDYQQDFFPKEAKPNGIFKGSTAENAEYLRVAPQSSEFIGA

Row | SMILES | inhibition at 0.5 µM (EGFR(T790M)(h)) | inhibition at 10 µM (EGFR(T790M)(h)) | inhibition at 0.5 µM (Mer(h)) | inhibition at 10 µM (Mer(h)) | inhibition at 0.5 µM (EGFR(T790M)(h); 0.5 µM, read-out: % Inhibition) | inhibition at 10 µM (EGFR(T790M)(h); 10 µM, read-out: % Inhibition) | inhibition at 0.5 µM (Mer(h); 0.5 µM, read-out: % Inhibition) | inhibition at 10 µM (Mer(h); 10 µM, read-out: % Inhibition)
1 | Cn1ncc(Cl)c1-c1cc(C(=O)N[C@H](CN)Cc2cccc(F)c2)sc1Cl [GSK2110183] | -1% | 2% | 2% | 65% | – | – | – | –
2 | Cn1ncc(Cl)c1-c1cc(C(=O)N[C@H](CN)Cc2ccc(F)c(F)c2)oc1Cl [GSK2141795] | – | – | – | – | -5% | 2% | 10% | 63%
